Data taken from patent US20240261243A1, “NITRIC OXIDE DONORS, COMPOSITIONS, AND METHODS OF USE” (priority 2020, published 2024).
≈ marks a conversion by molar mass, not a printed value. Marks after values point to notes of the source that are not given here.

Columns and labels:
[1] = NO storage and release measurement (chemiluminescence nitric oxide analyzer); type: physicochemical
Description: N-diazeniumdiolates NO scaffolds are pH-triggered NO-release donors. Reacting with proton in the physiological condition (e.g., 37° C., pH 7.4), 1 mole of N-diazeniumdiolate regenerates 1 mole of the parent secondary amine compounds and two moles of NO radicals. The real-time detection of NO was performed by using a chemiluminescence-based nitric oxide analyzer (NOA). The total NO storage and dissociation kinetics of water-soluble NO Donors were measured in physiological condition (pH 7.40, 37° C.). The resulting NO-release parameters (e.g., total NO storage, half-life of NO release, maximum flux, and conversion efficiency) were evaluated for suitability as a pharmaceutical product.
Transfer the solution into the high-pressure vessel and purge the headspace with nitrogen. Mix the solution and set nitric oxide pressure to 25 bar (temp 20° C.). Allow the reaction to run for minimum of 3 days. Stop the reaction by venting the NO. Precipitate the reaction product in acetone (10:1 acetone:reaction mixture). Filter the precipitate and vacuum dry.
We sought to determine whether an NO donor and gallium nitrate have antimicrobial synergy against a lab strain of P. aeruginosa (PAK). The Checkerboard assay (described herein) was used with a hepta-substituted cyclodextrin-based NO donor (hereinafter referred to as BIOC76) having approximately ˜4.7 μmol NO/mg dry powder.

P. aeruginosa strains = experiment: MIC/MBC of BIOC76 and gallium citrate alone against 21 strains; type: cell-based, Pseudomonas aeruginosa; conditions: for MBC Rep 1 / MIC Rep 1: alone
Excerpt: Determined the MIC of each test article individually against the strains being tested using the CLSI MIC/MBC method.
In this study, we established the MIC/MiBC's of BIOC76 and gallium citrate alone against each of 21 P. aeruginosa strains. […] The activity of both compounds is also strain-dependent. The results are as follows (the species for each strain is Pseudomonas aeruginosa: […]

P. aeruginosa (PAK) = experiment: Combination MIC/MBC assay, BIOC76 with fixed gallium citrate; type: cell-based, Pseudomonas aeruginosa
Description: Combination MIC/MBC assays are useful when you want to look at only a few concentrations of one compound (Gallium citrate) combined with many concentrations of the second compound (BIOC76).
This method also allows us to see the change in both the MIC and MBC of a drug when in combination with another drug. Checkerboard assays only allow us to see changes in the MIC's.
Test articles are added to a 96-well plate so that when a 2× bacterial culture (prepared to 10^6 CFU/ml) is added, the final concentration in all wells was 1×.
All test articles are prepared at 4×→diluted 1:1 when other TA is added (2×) and diluted 1:1 again to 1× when bacteria are added.
TA #1 (Gallium citrate) is prepared and added to entire rows of a plate at a single concentration.
TA #2 (BIOC76) in then prepared and serially diluted in TA #1, so there are 2-fold dilutions of TA #2 combined with a single concentration of TA #1.
Plates were incubated at 37° C. for 18-24 h.
The ΔMIC/IBC is used to show the change in the MIC/IBC of BIOC76 when in combination with Gallium citrate (compared to when BIOC76 is used alone).
ΔMIC/MBC is the fold-decrease in BIOC76 concentration as a result of the combination.
We concluded BIOC76 and gallium citrate maintain synergistic activity so long as the gallium concentration is at least about 0.005 to about 0.02 mg/ml. In this experimental, we set up MIC/MBC assay and serially diluted BIOC76 in rows with fixed concentrations of gallium citrate. […] The results are shown in FIG. 6, and in the following tables: […]

P. aeruginosa biofilms = experiment: Biofilm eradication (MBEC) on peg lid
[2] = strain N0049 (PAK), with 0.0156 mg/ml GaCi
[3] = strain N0049 (PAK), with 0.0325 mg/ml GaCi
[4] = strain N0049 (PAK), with 0.065 mg/ml GaCi
[5] = strain N0049 (PAK), with 0.125 mg/ml GaCi
[6] = strain N0049 (PAK), with 0.25 mg/ml GaCi
[7] = strain N0049 (PAK), with 0.5 mg/ml GaCi
[8] = strain N0049 (PAK), with 1 mg/ml GaCi
[9] = strain N0049 (PAK), with 2 mg/ml GaCi

Description for P. aeruginosa strain PAK: All test articles are prepared at 4×→diluted 1:1 when other TA is added (2×), and diluted 1:1 again to 1× when bacteria are added
Experimental Design: The MIC of BIOC76 and Gallium nitrate individually, then set up a checkerboard assay testing 49 combinations of BIOC76 and Gallium nitrate concentrations against 10^6 CFU/ml P. aeruginosa strain PAK. Plates were incubated at 37° C. for 18-24 h, and growth was assessed visually.

## O=NN(O)N(CCO)CC1OC2OC3C(CN(CCO)N(O)N=O)OC(OC4C(CN(CCO)N(O)N=O)OC(OC5C(CN(CCO)N(O)N=O)OC(OC6C(CN(CCO)N(O)N=O)OC(OC7C(CN(CCO)N(O)N=O)OC(OC8C(CN(CCO)N(O)N=O)OC(OC1C(O)C2O)C(O)C8O)C(O)C7O)C(O)C6O)C(O)C5O)C(O)C4O)C(O)C3O (centres unmarked) [BIOC76]
[1]
  NO content: ~4.7 μmol NO/mg dry powder
P. aeruginosa strains; 21 P. aeruginosa strains
  mode of activity alone (conclusion): largely bacteriostatic
P. aeruginosa strains; strain N0047 (AR-BANK #103)
  MBC Rep 1: 8000 µg/mL
  MIC Rep 1: 2000 µg/mL
P. aeruginosa strains; strain N0048 (ATCC 19143)
  MBC Rep 1: 2000 µg/mL
  MIC Rep 1: 500 µg/mL
P. aeruginosa strains; strain N0049 (PAK)
  MBC Rep 1: 4000 µg/mL
  MIC Rep 1: 2000 µg/mL
P. aeruginosa strains; strain N0050 (AR-BANK #0095)
  MBC Rep 1: 8000 µg/mL
  MIC Rep 1: 2000 µg/mL
P. aeruginosa strains; strain N0051 (AU32077)
  MBC Rep 1: 4000 µg/mL
  MIC Rep 1: 1000 µg/mL
P. aeruginosa strains; strain N0052 (AU25834)
  MBC Rep 1: 2000 µg/mL
  MIC Rep 1: 1000 µg/mL
P. aeruginosa strains; strain N0053 (AU30524)
  MBC Rep 1: 16000 µg/mL
  MIC Rep 1: 4000 µg/mL
P. aeruginosa strains; strain N0054 (AU26773)
  MBC Rep 1: 16000 µg/mL
  MIC Rep 1: 2000 µg/mL
P. aeruginosa strains; strain N0055 (AU22725)
  MBC Rep 1: >8000 µg/mL
  MIC Rep 1: 1000 µg/mL
P. aeruginosa strains; strain N0056 (AU22505)
  MBC Rep 1: 16000 µg/mL
  MIC Rep 1: 8000 µg/mL
P. aeruginosa strains; strain N0057 (AU35400)
  MBC Rep 1: 32000 µg/mL
  MIC Rep 1: 8000 µg/mL
P. aeruginosa strains; strain N0058 (AU32543)
  MBC Rep 1: 8000 µg/mL
  MIC Rep 1: 2000 µg/mL
P. aeruginosa strains; strain N0059 (AR-BANK #0054)
  MBC Rep 1: >16000 µg/mL
  MIC Rep 1: 2000 µg/mL
P. aeruginosa strains; strain N0069 (AR-BANK #0090)
  MBC Rep 1: >16000 µg/mL
  MIC Rep 1: 2000 µg/mL
P. aeruginosa strains; strain N0070 (AR-BANK #0092)
  MBC Rep 1: >16000 µg/mL
  MIC Rep 1: 2000 µg/mL
P. aeruginosa strains; strain N0071 (AR-BANK #0100)
  MBC Rep 1: >16000 µg/mL
  MIC Rep 1: 2000 µg/mL
P. aeruginosa strains; strain N0072 (AR-BANK #0105)
  MBC Rep 1: >16000 µg/mL
  MIC Rep 1: 2000 µg/mL
P. aeruginosa strains; strain N0079 (AR-BANK #0108)
  MBC Rep 1: >16000 µg/mL
  MIC Rep 1: 2000 µg/mL
P. aeruginosa strains; strain N0080 (AR-BANK #0110)
  MBC Rep 1: >16000 µg/mL
  MIC Rep 1: 2000 µg/mL
P. aeruginosa strains; strain N0081 (AR-BANK #0111)
  MBC Rep 1: >16000 µg/mL
  MIC Rep 1: 2000 µg/mL
P. aeruginosa strains; strain N0099 (ATCC 29260)
  MBC Rep 1: 8000 µg/mL
  MIC Rep 1: 2000 µg/mL
P. aeruginosa (PAK); PAK, alone
  MIC BIOC76: 2000 µg/mL
P. aeruginosa (PAK); PAK, with 0.0039 mg/ml GaCi
  Combo MIC BIOC76: 2000 µg/mL
P. aeruginosa (PAK); PAK, with 0.0078 mg/ml GaCi
  Combo MIC BIOC76: 1000 µg/mL
P. aeruginosa (PAK); PAK, with 0.0156 mg/ml GaCi
  Combo MIC BIOC76: 250 to 500 µg/mL
P. aeruginosa (PAK); PAK, with 0.0313 mg/ml GaCi
  Combo MIC BIOC76: 125 µg/mL
P. aeruginosa (PAK); strain N0049 (PAK)
  MBC BIOC76 alone: 4000 µg/mL
  MIC BIOC76 alone: 2000 µg/mL
P. aeruginosa (PAK); [2]
  Combo MBC BIOC76: 4 mg/mL
  Δ MBC: 0 fold-decrease
  Δ MIC: 4 fold-decrease
P. aeruginosa (PAK); [3]
  Combo MBC BIOC76: 4 mg/mL
  Combo MIC BIOC76: 125000 µg/mL
  Δ MBC: 0 fold-decrease
  Δ MIC: 16 fold-decrease
P. aeruginosa (PAK); [4]
  Combo MBC BIOC76: 4 mg/mL
  Combo MIC BIOC76: <60 µg/mL
  Δ MBC: 0 fold-decrease
P. aeruginosa (PAK); [5]
  Combo MBC BIOC76: 4 mg/mL
  Combo MIC BIOC76: <60 µg/mL
  Δ MBC: 0 fold-decrease
P. aeruginosa (PAK); [6]
  Combo MBC BIOC76: 2 mg/mL
  Combo MIC BIOC76: <60 µg/mL
  Δ MBC: 2 fold-decrease
P. aeruginosa (PAK); [7]
  Combo MBC BIOC76: 2 mg/mL
  Combo MIC BIOC76: <60 µg/mL
  Δ MBC: 2 fold-decrease
P. aeruginosa (PAK); [8]
  Combo MBC BIOC76: 4* mg/ml
  Combo MIC BIOC76: <60 µg/mL
  Δ MBC: 0* fold-decrease
P. aeruginosa (PAK); [9]
  Combo MBC BIOC76: 2 mg/mL
  Combo MIC BIOC76: <60 µg/mL
  Δ MBC: 2 fold-decrease
P. aeruginosa strain PAK
  MIC BIOC76 alone: 1000 µg/mL (≈ 539 µM)
P. aeruginosa strain PAK; in combination with Ga(NO3)3
  MIC BIOC76 combo: 125 µg/mL
P. aeruginosa biofilms; PAK (N0049), 3-log reduction in biofilm
  MBEC of BIOC76: 4 mg/mL
P. aeruginosa biofilms; biofilms grown under aerobic conditions
  effectiveness against P. aeruginosa biofilms: effective
